Data set [1] has as its system A/California-like/2009 (H1N1). Briefly: microbe, parasite or virus in culture. Type of data set: cell-based, influenza A virus.
For a further data set, the system named is A/Hong Kong/X31 (H3N2). Put plainly: microbe, parasite or virus in culture. As to conditions: read-out: EC50 values, A/Hong Kong/X31 (H3N2). Type of data set: cell-based, influenza A virus.
A further data set relates to PR8 virus. Type of data set: cell-based, influenza A virus.
For data set [2], the system named is A/Puerto Rico/8/34 (H1N1). Put plainly: microbe, parasite or virus in culture. The class given is cell-based, influenza A virus. As to conditions: for EC50: read-out: EC50 values, A/Puerto Rico/8/34 (H1N1).
The next data set can be described thus: in vitro. The conditions noted are these: dog.
Data set [3] has as its system viral acidic polymerase (PA) expression, PR8 virus. Type of data set: cell-based, influenza A virus.
The nature of data set [4]: XTT cytotoxicity assay in MDCK cells. The conditions noted are these: dog. In general terms: Tetrazolium assays rely on reduction of a dye to a coloured formazan, in cell work by metabolically active cells.
Data set [5] relates to A/Puerto Rico/8/34 (H1N1). Briefly: microbe, parasite or virus in culture. Type of data set: cell-based. As to conditions: Influenza A virus, H1N1 / PR8, Calu-3, 48 h, read-out: EC50 values.
Data set [6] relates to A/Swine/OTH-33-2/2009 (H1N1). The class given is cell-based, influenza A virus.
In a further data set the test system is PR8 influenza virus. The class given is cell-based, influenza A virus.
Data set [7] in a line: XTT cytotoxic assay in Calu-3 cells. Type of data set: cell-based. As to conditions: human.
Data set [8] deals with MDCK cells. Briefly: XTT cytotoxicity assay in MDCK cells. As to conditions: MDCK cells; for CC50: XTT cell viability, 2 days.
Data set [9] concerns MDCK cells.
Where [10] appears, read: Influenza A virus, H1N1, MDCK, 48 h, read-out: EC50 values, A/California-like/2009 (H1N1).
The mark [11] stands for this setting: Influenza A virus, H3N2, MDCK, 48 h.
Where [12] appears, read: Influenza A virus, H1N1, MDCK, 48 h.
Where [13] appears, read: read-out: EC50 values, A/California-like/2009 (H1N1).

Several values for one entry are separate records, joined by “and”; a condition that tells them apart may be missing. Equal entries are not always repeated. Structures can show the parent of a compound that is named as a salt. Where two headings read alike, the source gives them in different places.

Consider `CN(C)c1nc(N)c(C(=O)NC(=N)N)nc1Cl` [5-(N,N-Dimethyl)amiloride hydrochloride, 5-(N,N-Dimethyl) amiloride hydrochloride], for which the EC50 stood at 63.5 ± 5.77 µM in data set [1] (setting [10]), 20.4 ± 8.62 µM in the data set on A/Hong Kong/X31 (H3N2) (setting [11]) and 31.1 ± 7.72 µM in data set [2] (setting [12]). Besides, in the data set with PR8 virus, the “inhibition of viral replication” value was determined as 80%. The same compound displayed a CC50 at 2 days in “in vitro” of 175 ± 10.2 µM. For the same compound, the “effect on PA gene expression” value in data set [3] is listed as “almost completely abolished”.
For the compound `CNc1ccc2oc(C[C@H]3O[C@@]4(CC[C@H]3C)O[C@H]([C@H](C)C(=O)c3ccc[nH]3)[C@H](C)C[C@H]4C)nc2c1C(=O)O` [A23187 (calcimycin), calcimycin (A23187)], the EC50 in data set [1] (setting [10]) worked out at 0.22 ± 0.01 µM; in the data set on A/Hong Kong/X31 (H3N2) (setting [11]), 0.08 ± 0.01 µM; in data set [2] (setting [12]), 0.08 ± 0.01 µM. The “effect on viral replication” value with PR8 virus was “completely inhibit viral replication”. This compound registered a CC50 at 2 days in data set [4] of 0.413 ± 0.21 µM. Moreover, the “decrease of PA expression” value in data set [3] is on record as 42%.
On to `CCN(CC)Cc1cc(Nc2ccnc3cc(Cl)ccc23)ccc1O` [Amodiaquine, amodiaquin dihydrochloride dihydrate], for which the EC50 in data set [1] (setting [10]) was 1.48 ± 0.92 µM; in the data set on A/Hong Kong/X31 (H3N2) (setting [11]) it was 2.63 ± 0.9 µM; in data set [2] (setting [12]) it was 2.76 ± 0.95 µM; in data set [5] it was 1.25 to 2.5 µM. Moreover, the “effect on viral replication” value in the data set with PR8 virus was “abrogate viral replication”. The “reduction of PR8 replication” value in [2] is on record as around 26%. Further, the results for the CC50 (in “in vitro”; in data set [7]) were 26.2 ± 8.43 µM and 53.6 ± 8.8 µM, respectively. Moreover, the inhibition of replication entry in [6] is listed as “more than 60%”. Further, in the data set on PR8 influenza virus, the “effect on viral replication in growth kinetics assays” value was “inhibited viral replication”. In [3], the “decrease of PA expression” value was 82%.
On to `CO/C1=C\C(C)=C\[C@@H](C)[C@@H](O)[C@@H](C)C/C(C)=C/C=C/[C@H](OC)[C@@H]([C@@H](C)[C@@H](O)[C@H](C)[C@@]2(O)C[C@@H](O)[C@H](C)[C@@H](C(C)C)O2)OC1=O` [Bafilomycin A, bafilomycin A], for which the EC50 in [1] (read-out: EC50 values, A/California-like/2009 (H1N1), result as symbol) was below 0.004 µM; in [2], 0.004 µM. The same compound gave a CC50 in the data set with MDCK cells [8] (footnote c: [ ] in nM) of 16.8 ± 9.02 nM. For the same compound, the “decrease of PA expression” value in [3] was “more than 90%”.
Consider `COc1cc(CNC(=O)CCCC/C=C/C(C)C)ccc1O` [Capsaicin, capsaicin], for which the EC50 in data set [1] (setting [10]) worked out at 44.7 ± 8.15 µM; with A/Hong Kong/X31 (H3N2) (setting [11]), 55.2 ± 7.2 µM; in data set [2] (setting [12]), 58.8 ± 8.32 µM. The same compound had a CC50 at 2 days in data set [4] of 157 ± 9.63 µM. In the data set with MDCK cells [8] (at 100 µM), the toxicity result was “no significant toxicity”. Also, in the data set with MDCK cells [8] (at 200 µM), the cell death is 50%. Also, the “decrease of PA expression” value in data set [3] is “approximately 48%”.
As to `CCN(CC)CCCC(C)Nc1ccnc2cc(Cl)ccc12` (stereo not shown) [Chloroquine, chloroquine diphosphate salt], the EC50 in data set [1] (setting [10]) worked out at 4.01 ± 0.8 µM; in the data set on A/Hong Kong/X31 (H3N2) (setting [11]), 4.31 ± 0.96 µM; in data set [2] (setting [12]), 0.61 ± 0.91 µM. Also, in the data set on PR8 virus, the “effect on viral replication” value was “abrogate viral replication”. Besides, the inhibition of replication result in [6] is reported as “more than 60%”.
Take `OC(c1cc(C(F)(F)F)nc2c(C(F)(F)F)cccc12)C1CCCCN1` (stereo not shown) [Mefloquine, mefloquine hydrochloride]: the EC50 is above 22.9 µM in [1] (Influenza A virus, H1N1, MDCK, read-out: EC50 values, A/California-like/2009 (H1N1), result as symbol); 6.66 ± 0.75 µM in the data set with A/Hong Kong/X31 (H3N2) (setting [11]); 5.13 ± 0.87 µM in data set [2] (setting [12]). Also, the CC50 in the data set “in vitro” came to 22.9 ± 1.3 µM. Also, the “decrease of PA expression” value in data set [3] is 82%.
In the case of `CCC(CC)O[C@@H]1C=C(C(=O)O)C[C@H](N)[C@H]1NC(C)=O` [Oseltamivir carboxylate], the EC50 in data set [1] (setting [13]) is 0.103 ± 0.0321 µM; in the data set on A/Hong Kong/X31 (H3N2), 0.00074 ± 8e-05 µM; in the data set with PR8 virus it was 0.313 µM; in data set [2], 0.05 µM and 0.0499 µM. In the data set with MDCK cells [9], the CC50 is above 1000 µM. The “reduction of PR8 replication” value in [2] is reported as “approximately 30%”.
For the compound `COc1cc(NC(C)CCCN)c2ncccc2c1` (stereo not shown) [Primaquine, primaquine diphosphate], the EC50 is 28.6 ± 9.45 µM in [1] (setting [10]), 29.5 ± 9.42 µM in the data set on A/Hong Kong/X31 (H3N2) (setting [11]) and 8.58 ± 0.89 µM in data set [2] (setting [12]). The inhibition of replication result in data set [6] was “less than 20%”. Also, the “decrease of PA expression” value in data set [3] is given as 62%.
For `CCN(CC)CCCC(C)Nc1c2ccc(Cl)cc2nc2ccc(OC)cc12` (stereo not shown) [Quinacrine, quinacrine dihydrochloride], the EC50 stood at 1.88 ± 0.87 µM in [1] (setting [10]), 5.97 ± 0.91 µM with A/Hong Kong/X31 (H3N2) (setting [11]) and 2.96 ± 0.87 µM in data set [2] (setting [12]). Moreover, the toxicity result with MDCK cells [9] is on record as “no toxicity”. This compound had a cell death in the data set with MDCK cells [9] (dog) of 10%. Also, the CC50 in the data set “in vitro” worked out at 14.6 ± 8.51 µM. Also, in data set [6], the inhibition of replication result is on record as “more than 60%”. The “decrease of PA expression” value in data set [3] was “more than 90%”.
Take `C=C[C@H]1C[N@@]2CC[C@H]1C[C@@H]2[C@@H](O)c1ccnc2ccc(OC)cc12` [Quinidine, quinidine anhydrous]: the results for the EC50 (in data set [1] (setting [10]); with A/Hong Kong/X31 (H3N2) (setting [11]); in data set [2] (setting [12])) were 5.11 ± 0.76 µM, 19.8 ± 8.83 µM and 16.2 ± 8.9 µM, respectively. Further, the “dose range at which IAV replication is inhibited” value in data set [2] is given as at least 16.2 µM. Moreover, the CC50 in the data set “in vitro” came out at 167 ± 94.2 µM. Further, the “decrease of PA expression” value in data set [3] is reported as “more than 90%”.
`C=C[C@H]1C[N@@]2CC[C@H]1C[C@H]2[C@H](O)c1ccnc2ccc(OC)cc12` [Quinine, Quinine sulfate]: the values for the EC50 (in [1] (setting [10]); with A/Hong Kong/X31 (H3N2) (setting [11]); in data set [2] (setting [12])) were 12.2 ± 8.49 µM, 17.1 ± 8.7 µM and 9.1 ± 0.89 µM, respectively. The “concentration needed to abrogate viral replication” value was found to be 60 µM in the data set on PR8 virus and 50 µM in data set [2]. In addition, the “effect on viral replication” value in the data set on PR8 virus is listed as “abrogate viral replication”. Further, the CC50 in the data set “in vitro” stood at 409 ± 82.2 µM. Besides, in [3], the “decrease of PA expression” value is “more than 90%”.
Turning to `CCN(CC)CCCCCCCCOC(=O)c1cc(OC)c(OC)c(OC)c1.Cl` [TMB-8, TMB-8 hydrochloride], the figures for the EC50 (in data set [1] (setting [13]); with A/Hong Kong/X31 (H3N2); in data set [2]) were 12.7 ± 8.65 µM, 21.7 ± 9.31 µM and 2.5 ± 0.91 µM, respectively. Moreover, the “effect on viral replication” value in the data set with PR8 virus was “completely inhibit viral replication”. The compound further yielded a cell death with MDCK cells [9] of 25%. The toxicity result with MDCK cells [9] is recorded as “no significant toxicity”. In addition, the “inhibition of PR8 replication” value in data set [2] (10 µM) was 90%. In the data set on MDCK cells [8], the CC50 was 52300 ± 8380 nM. In addition, in [3], the “effect on PA gene expression” value is “almost completely abolished”.
Regarding `COc1ccc(CCN(C)CCCC(C#N)(c2ccc(OC)c(OC)c2)C(C)C)cc1OC` (stereo not shown) [Verapamil, verapamil hydrochoride], the EC50 in the data set with A/Hong Kong/X31 (H3N2) (setting [11]) was 19.6 ± 8.75 µM; in data set [5] it was 1.25 to 2.5 µM.

Source of the values: publication PMC4204995, “Inhibition of Influenza Virus Replication by Targeting Broad Host Cell Pathways” (PLoS ONE, 2014).
